Test results from patent US20190345199A1, “LIPOLANTHIPEPTIDES AND THEIR USES AS ANTIMICROBIAL AGENTS” (DEINOVE, priority 2017, published 2019).
Converted amounts (≈) assume the structure as drawn. Like-named read-outs stand apart in the source and are kept apart here.

Legend:
Assay type in all cases: cell-based
Candida albicans = experiment: MIC, extended antimicrobial activities (fungi); conditions: Candida albicans ATCC10231
Candida tropicalis = experiment: MIC, extended antimicrobial activities (fungi); conditions: Candida tropicalis DSMZ11953
Description: (§1) The measures of activities were conducted on compound NOC1 from Nocardia terpenica following the protocol recommended by the Clinical and Laboratory Standards Institute (CLSI)—Clinical and Laboratory Standards Institute (CLSI, formerly NCCLS): Methods for Dilution Antibacterial Susceptibility Tests for Bacteria That Grow Aerobically; Approved Standard—Tenth Edition (2015). Clinical and Laboratory Standards Institute Document M07-A10.

Candida parapsilosis = experiment: MIC, extended antimicrobial activities (fungi); conditions: Lodderomyces parapsilosis; Candida parapsilosis DSMZ5784
Description: as §1

Staphylococcus aureus = experiment: MIC, CLSI dilution antibacterial susceptibility test; conditions: read-out: Minimal Inhibitory Concentration (MIC)
Description: as §1
(§2) The measures of activities were conducted on compounds A, B and C, following the protocol recommended by the Clinical and Laboratory Standards Institute (CLSI)—Clinical and Laboratory Standards Institute (CLSI, formerly NCCLS):
(§3) Methods for Dilution Antibacterial Susceptibility Tests for Bacteria That Grow Aerobically; Approved Standard—Tenth Edition (2015). Clinical and Laboratory Standards Institute Document M07-A10.

Enterococcus faecium = experiment: as above
Description: as §1, §2, §3

Bacillus subtilis = experiment: as above; conditions: Bacillus subtilis ATCC6633
Description: as §1

Enterococcus faecalis = experiment: as above
Description: as §1

Candida krusei = experiment: MIC, extended antimicrobial activities (fungi); conditions: Pichia kudriavzevii; Candida krusei DSMZ6128
Cryptococcus neoformans = experiment: MIC, extended antimicrobial activities (fungi); conditions: Cryptococcus neoformans DSMZ6972
Candida glabrata = experiment: MIC, extended antimicrobial activities (fungi); conditions: Nakaseomyces glabratus; Candida glabrata DSMZ6425

Question: For CCC(C)C1NC(=O)C(NC(=O)C(C)NC(=O)/C=C/C=C/CC/C=C/CCCCN/C(=N/C)NC)CC2(CS/C=C\NC(=O)CNC(=O)C(CC(N)=O)NC2=O)NC(=O)C(CO)NC1=O (stereo not shown) [NOC1], which MIC (Candida albicans) is on record?
Answer: 3 µg/mL (≈ 3.22 µM)

Question: And the MIC (Candida tropicalis)?
Answer: 6 µg/mL (≈ 6.44 µM)

Question: And the MIC (Candida parapsilosis)?
Answer: 24 µg/mL (≈ 25.8 µM)

Question: What about the MIC (Staphylococcus aureus; S. aureus ATTC 1683 (ATCC1683), methicillin resistant) of the same molecule?
Answer: 16 µg/mL (≈ 17.2 µM)

Question: And the MIC (Staphylococcus aureus; S. aureus ATTC 13709 (ATCC13709), fully susceptible / methicillin sensitive)?
Answer: 2 µg/mL (≈ 2.15 µM)

Question: And the MIC (Staphylococcus aureus; S. aureus ATTC 25923 (ATCC25923), methicillin sensitive)?
Answer: 2 µg/mL (≈ 2.15 µM)

Question: And the MIC (Staphylococcus aureus; S. aureus USA300, methicillin resistant)?
Answer: 60 µg/mL (≈ 64.4 µM)

Question: And the MIC (Enterococcus faecium; Enterococcus faecium ATCC19434, vancomycin sensitive)?
Answer: 8 µg/mL (≈ 8.59 µM)

Question: What about the MIC (Enterococcus faecium; Enterococcus faecium ATCC51559, vancomycin resistant (gene vanA)) of the same molecule?
Answer: 16 µg/mL (≈ 17.2 µM)

Question: What about the MIC (Enterococcus faecium; Enterococcus faecium ATCC51858, vancomycin resistant (gene vanB)) of the same molecule?
Answer: 16 µg/mL (≈ 17.2 µM)

Question: What about the MIC (Bacillus subtilis) of the same molecule?
Answer: 2 µg/mL (≈ 2.15 µM)

Question: And the MIC (Enterococcus faecalis; Enterococcus faecalis ATCC29212, vancomycin sensitive)?
Answer: 160 µg/mL (≈ 172 µM)

Question: And the MIC (Enterococcus faecalis; Enterococcus faecalis ATCC700802, vancomycin resistant (gene vanB))?
Answer: 16 µg/mL (≈ 17.2 µM)

Question: And the MIC (Candida krusei)?
Answer: 12 µg/mL (≈ 12.9 µM)

Question: And the MIC (Cryptococcus neoformans)?
Answer: 24 µg/mL (≈ 25.8 µM)

Question: And the MIC (Candida glabrata)?
Answer: 12 µg/mL (≈ 12.9 µM)
